Reference: the METLIN SMRT retention time set (Domingo-Almenara et al. 2019)

Assay: gradient 5% acetonitrile 3 min, to 50% in 2 min, to 85% in 15 min, held 3 min, 100 µL/min
Details: column: Zorbax Extend-C18 2.1 x 50 mm; eluents: water / acetonitrile, 0.1% formic acid
How it was run: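 Using water and acetonitrile that each contained 0.1% formic acid, mixtures of ~100 pure standards were separated at 100 μL/min on a Zorbax Extend-C18 column (2.1 × 50 mm, 1.8 μm). The HPLC fed a quadrupole time-of-flight mass spectrometer working in positive and negative ionization mode, with dead and dwell volumes of 40 μL and 900 μL. Data were acquired over 3 months. Retention time was read from computationally picked adduct peaks after manual inspection of each.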

RP-LC retention time [s]	SMILES
639	Cc1cc(C)cc(NC(=O)N(C)Cc2nc3cc(C(=O)N(C)C)ccc3n2C)c1
714	Cc1cc2nc(C(=O)NC3CC3)c(=O)n(C)c2cc1C
688	O=C(Nc1ccc(F)cc1)Nc1ccc2nc3n(c(=O)c2c1)CCC3
771	O=C(Cc1c(F)cccc1Cl)Nc1cnn(-c2ncc(N3CCCC3)cn2)c1
950	COC(=O)C(C)n1cc(-c2nc(-c3ccc(Cl)cc3)no2)ccc1=O (centres undefined)
794	Cc1nc(OCC(=O)Nc2ccc(Br)cc2)c2ccccc2n1
734	COc1ccc(NC(=O)Cn2nc3nc(N4CCCC(C)C4)ccn3c2=O)cc1 (centres undefined)
650	Cc1noc(C)c1CCC(=O)N1CCN(c2c(C)nn(C3CCS(=O)(=O)C3)c2C)CC1 (centres undefined)
746	Cc1cc(C)nc(Nc2nc(C(=O)Nc3ccc(N4CCOCC4)cc3)cs2)n1
664	CCN1C(=O)COc2ccc(-c3csc(NC(=O)CCc4ccccc4)n3)cc21
905	O=C(NC1CCCC1)C1c2cccn2CC(=O)N1Cc1ccc(Cl)cc1 (centres undefined)
725	CCC(C)C(NC(=O)c1cc(OC)c(OC)c(OC)c1)C(=O)Nc1nc2ccccc2[nH]1 (centres undefined)
956	O=C(C1CC1)N1CCC(c2noc(-c3ccccc3)n2)C1 (centres undefined)
765	COc1ccc(OC)c(CNC(=O)Cn2cc(-c3nnco3)c3ccccc32)c1
1110	CC(C)Oc1ccc(CNC(=O)c2sc3ncccc3c2-n2cccc2)cc1
710	Cc1cc(N2CCN(c3ccccc3)CC2)nc2ccccc12
979	COc1cc(OC)cc(-c2noc(-c3nn(-c4ccc(C)c(C)c4)ccc3=O)n2)c1
600	O=C(Nc1ccccc1Cl)N1CCN(c2cc(-c3ccncc3)[nH]n2)CC1
669	CSc1cccc(NC(=O)Cn2nc3n(c2=O)CCCC3)c1
905	CCNC(=O)C1CCN(c2nc3ccc(-c4cccc(F)c4)nc3s2)CC1
643	O=C(Nc1ccc2c(c1)OCCO2)c1coc(NC(=O)C2CC2)n1
636	Cc1ccn2cc(-c3ccc(NS(=O)(=O)c4ccccc4F)cc3)nc2n1
725	CSc1c(C)c(SC)n2ccncc12

RP-LC retention time [s]	SMILES
664	Cc1csc(NC(=O)C2CC(=O)N(c3n[nH]c4cccc(F)c34)C2)n1 (centres undefined)
753	Cc1nn(C)cc1S(=O)(=O)Nc1ccc(C(F)(F)F)cc1
640	COc1ccc(NC(=O)N2CCC(c3cc(N)on3)CC2)cc1
570	Cc1noc(C)c1S(=O)(=O)NCCn1c(C)cnc1-c1ccncc1
597	CCCN1CCN(CCNc2nnc(-c3nc(C4CC4)no3)c3ccccc23)CC1
747	O=C(NCc1csc(C2CCN(C(=O)Cc3ccc(Cl)cc3)CC2)n1)C1CC1
718	CCOc1cccc2cc(C(=O)N3CCOCC3)oc12
646	Cc1ccc(C(=O)N2C[C@H]3C[C@H](C2)[C@H]2CCCC(=O)N2C3)s1
875	Cc1ccc2[nH]cc(CCN3CC(C(=O)NC4CCCCCC4)CC3=O)c2c1 (centres undefined)
894	Cc1nc(-c2cc3ccccc3nc2N2CCN(C(=O)c3cccs3)CC2)no1
562	Cc1cc(C)c2c(N(C)C)nc(C(=O)NCCN(C)C3CCCCC3)nc2n1
634	Cc1ccc(C)n1-c1nnc(N2CCC(C(=O)N3CCN(c4ccccn4)CC3)CC2)s1
921	CCn1c(=O)sc2cc(S(=O)(=O)N3CCC(C(=O)Nc4ccc(F)cc4F)CC3)ccc21
884	COc1cccc(NC(=O)N2CCc3nc(-c4ccccc4)ncc3C2)c1
525	Cc1noc(C)c1CN1CCC(n2c(C)cnc2-c2ccncc2)C1 (centres undefined)
879	Cc1nc(Cn2cccc2C(=O)NC2CCCCCC2)no1
640	O=C(NC1CCN(c2nnc3ccccn23)CC1)c1cccc(F)c1
573	COCCN1CCC(N2CCCN(C(=O)c3ccc(F)c(Cl)c3)CC2)C1=O (centres undefined)
716	COc1ccc(C(=O)N2C[C@@H]3C[C@H]2C[C@@H]3NS(=O)(=O)c2ccccc2)cn1
688	CC(C)NC(=O)N(C1CC1)C1CCOC2(CCN(C(=O)C3CC3)CC2)C1 (centres undefined)
931	O=C(COc1ccc(F)cc1)Nc1cnc(N2CCCCC2)nc1
1250	COc1ccc(NC(=O)c2c(O)c3cccnc3n(-c3ccc(F)cc3)c2=O)cc1
908	Cc1ccc(S(=O)(=O)NCc2ccccc2)cc1

RP-LC retention time [s]	SMILES
686	Cc1ccc2[nH]c(=O)c(CCC(=O)N3CCN(c4ncccn4)CC3)cc2c1
832	Cc1ccc(NC(=O)Cn2nc3cc(C)nc(-c4ccccc4)n3c2=O)c(C)c1
538	Cc1cc(N2CCN(C)CC2)nc2ccc(NC(=S)NCCN3CCc4ccccc4C3)cc12
940	COc1ccc2c(c1)C=C(C(=O)NCc1ccccc1)C=CO2
908	CCC(=O)N(C1CCOCC1)C1CCN(S(=O)(=O)c2cc(C)ccc2C)CC1
976	Cc1nc(N2CCOCC2)c2c(C(=O)Nc3ccc(Br)cc3F)c(C)oc2n1
796	Cc1oc(-c2[nH]ncc2C(=O)N2CCCCC2)cc1S(=O)(=O)Nc1cccc(Cl)c1
636	Cc1ccc(N2CCN(Cc3nc4nc(C)cc(N5CCOCC5)n4n3)CC2)cc1
696	O=C(c1ccsc1)N1CC(c2nc(CCOCC3CCOCC3)no2)C1
798	COC(=O)c1c(C)[nH]c(C(=O)N2CCCC(C(=O)NCc3cccc(Cl)c3)C2)c1C (centres undefined)
575	CN(C)C(=O)c1ccc2c(c1)nc(CN1CCN(C(=O)c3ccco3)CC1)n2C
840	CC1CCC(NC(=O)C2CCCN2S(=O)(=O)c2cc3c(cc2Cl)NC(=O)CO3)CC1 (centres undefined)
756	CCN1C(=O)c2cccnc2Sc2cc(CNC(=O)c3ccc(C#N)cc3)ccc21
860	Cc1ccc(C(=O)NC2CCN(c3cc(-c4ccc(Cl)cc4)[nH]n3)C2)cc1C (centres undefined)
734	COc1ccccc1NC(=O)Cc1csc2nc(-c3ccc(OC)c(OC)c3)cn12
925	O=C(Nc1ccc(N2CCOCC2)cc1)C1CCCN(c2ncc(-c3ccccc3)cn2)C1 (centres undefined)
830	CN(C)S(=O)(=O)c1ccc(NC(=O)N2CCCC(C(=O)Nc3ccc(F)cc3)C2)s1 (centres undefined)
943	CCc1ccc(C(C)NC(=O)C2CCN(c3nnc(-c4ccc(OC)cc4)o3)CC2)cc1 (centres undefined)
714	COc1ccccc1CNC(=O)C1CCN(Cc2cn(C)c3ccc(Cl)cc23)CC1
1200	CCOc1cc(C(=O)N2CCCC2c2nc(-c3ccc(C)cc3)no2)cc(OCC)c1OCC (centres undefined)
950	O=C(COc1ccc(F)cc1)N1CCCC1c1nc(-c2ccc(F)cc2F)no1 (centres undefined)
612	Cc1c(C(=O)NCCCN2CCOCC2)oc2ccc3c(c12)C(O)CC(C)(C)O3 (centres undefined)
776	COC(=O)C1=CN(c2cccc(OC)c2)c2ccccc2S1(=O)=O

RP-LC retention time [s]	SMILES
634	COc1cc2ncc(S(=O)(=O)c3ccc(Cl)cc3)c(N3CCN(C)CC3)c2cc1OC
1000	CCn1cc(-c2nc(C(=O)Nc3ccc(OC)cc3)cs2)c2cccnc21
956	CCCN(C)C(=O)c1cn2ccnc(-c3ccc(C)cc3)c2n1
730	Cc1ccc(-c2cc3n(n2)CCCN(C(=O)CCN2C(=O)NC(C)(C)C2=O)C3)cc1C
573	COc1ccc(NC(=O)Cn2ccnc2-c2ccnc(N3CCCC3)c2)cc1OC
688	CCCNC(=O)CCc1nc2ccccc2n(CC(=O)NC(C)CC)c1=O (centres undefined)
998	Cc1ccc(NC(=O)CN(C)S(=O)(=O)c2cc(C(=O)N3CCC(C)CC3)n(C)c2)cc1Cl
719	O=C(c1cnc2ccccc2n1)N1CCN(Cc2nc(-c3ccc(F)cc3)cs2)CC1
1010	CCOC(=O)c1sc(NC(=O)c2cc(=O)c3ccccc3o2)nc1-c1ccccc1
765	CCN(CC)CCSC(=O)C(c1ccccc1)c1ccccc1
1130	CC(C)(C)OC(=O)Cn1cnc2c(-c3cccc(Cl)c3)csc2c1=O
737	O=C1CC(C(F)(F)F)c2c(c(C(=O)O)cn2-c2ccccc2Cl)N1 (centres undefined)
895	CCS(=O)(=O)N1CC(=O)N(c2cccc(Cl)c2)C(C)(C(=O)NC2CCCCCC2)C1 (centres undefined)
689	COc1cccc2c(Nc3ccccc3C)cc(C(=O)N3CCSCC3)nc12
823	COC(=O)COc1cc(-c2cccc(Cl)c2)nc2ccc(NC(=O)C3CC3)cc12
577	CCN1CCN(CCNC(=O)Cn2c3ccccc3c3cnn(C)c(=O)c32)CC1
752	Cc1noc(C)c1S(=O)(=O)N1CCCN(S(=O)(=O)c2ccccc2)CCC(=O)NCC1
640	Cc1noc(C)c1CC(=O)NCCn1ncc2c(=O)n(Cc3ccc(F)cc3)cnc21
814	Cc1ccc(S(=O)(=O)N2CCCC(CCC(=O)N3CCOCC3)C2)cc1 (centres undefined)
960	Cc1cccc(NS(=O)(=O)c2cn(CC(C)C)c3ncccc23)c1
